Reference: patent US4868195A, “Novel enolamides, pharmaceutical compositions and methods of use thereof for activity as modulators of the arachidonic acid cascade” (Warner-Lambert Company, priority 1988, dated 1989)

What follows are compounds tested on Human Leukocyte Lipoxygenase (assay: Human Leukocyte Lipoxygenase Assay (LDA-H)). Conditions: Concentration 1.00 E -5 M.
Type: biochemical
Procedure: Human Leukocyte Lipoxygenase Assay (LDA-H)
Whole blood is collected from normal volunteers and spun in a refrigerated centrifuge for four minutes at 1°-6° C. at 3800 g. The buffy coat is manually separated and washed twice with chilled 0.83% NH4 Cl and centrifuged at 1000 RPM for ten minutes at 4° C. The white cell is suspended in culture media-EMEM supplemented with 6% Agamma human serum, tricine buffer, and neomycin and recentrifuged at 1000 g to yield a pellet containing the leukocytes used for the preparation of the acetone pentane powder.
The acetone-pentane powder is prepared utilizing a modification of the procedure reported for human platelet lipoxygenase. See Siegel, et al, Arachidonate Metabolism via Lipoxygenase and 12-L-hydroperoxy-5 Eicosatetraenoic Acid Peroxidase Sensitive to Antiinflammatory Drugs, Proc. Natl. Acad. Sci., USA 77: 308, 1980 and D. P. Wallach and V. R. Brown, A Novel Preparation of Human Platlet Lipoxygenase, Biochem. Biophys. Acta. 663: 361, 1981. Buffy coat prepared above is resuspended in 5-7 volumes of cold 0.1M Tris buffer, pH 7.4 containing 0.154M NaCl. The suspension is centrifuged at 13,300 g for ten minutes at 4° C. The resultant pellet is retained, resuspended in five volumes of cold acetone, recentrifuged at 13,300 g and resuspended in five volumes of cold pentane. The pentane suspension is centrifuged for ten minutes at 13,300 g to give a pellet which is dried in the cold under vacuum with periodic pulverization. The dry powder is stable for several weeks when stored at -80° C.
Enzyme stock solution is prepared in the following manner. About 15 mg of the acetone-pentane powder is suspended in 4 ml of cold tris buffer (0.1M, pH 7.4), allowed to stand for five minutes, and homogenized thoroughly. The homogenate is sonicated three times for 15 seconds each time, diluted to 7 ml with cold tris buffer (0.1M, pH 7.4), and centrifuged at 4° C. for 60 minutes at 13,300 g. the supernatent is retained and diluted to a total of 10 ml with cold tris buffer (0.1M, pH 7.4) to give the stock enzyme solution. Additional dilutions of 2-50 fold are done as necessary to locate optimal enzyme reaction rate in the assay described below.
Substrate solution is prepared at 100 μM or 1.0 μM concentrations of arachidonic acid or linoleic acid in 0.1M tris buffer, pH 9.0 containing 20% ethanol.
The enzyme reaction is followed spectrophotometrically by the appearance of a conjugated diene product at 234 nm. The reaction is monitored at 24° C. using a Gilford Model 2600 spectrophotometer. […] The effects of inhibitors on the reaction are compared with control reactions run under indentical conditions. Routinely, each compounds of the present invention is incubated with the enzyme for five minutes prior to addition of substrate to initiate the reaction. Inhibition expressed as IC50 as molar concentration of the compound required to reduce reaction rate to 50% control.
In the case of COc1ccc(CCc2ccc(NC(=O)C(=O)C3=C(O)c4ccccc4S(=O)(=O)C3)cc2)cc1OC [Example 3, N-[4-[2-(3,4-Dimethoxyphenyl)ethyl)phenyl]-4-hydroxy-α-oxo-2H-1-benzothiopyran-3-acetamide, 1,1-dioxide], the “% Inhibition (LDAH)” value is reported as 0.0%.

Same assay, conditions: Concentration 2.50 E -5 M
O=C(Nc1ccc(CCCCc2ccc(O)c(O)c2)cc1)C1CS(=O)(=O)c2ccccc2C1=O (stereo not shown) [Example 23, N-[4-[4-(3,4-Dihydroxyphenyl)butyl]phenyl]-3,4-dihydro-4-oxo-2H-1-benzothiopyran-3-carboxamide, 1,1-dioxide] was tested, and the “% Inhibition (LDAH)” value was 0.0%. With O=C(Nc1ccc(Cc2ccc(O)c(O)c2)cc1)C1CS(=O)(=O)c2ccccc2C1=O (stereo not shown) [Example 14, N-[4-[(3,4-Dihydroxyphenyl)methyl]phenyl]-3,4-dihydro-4-oxo-2H-1-benzothiopyran-3-carboxamide, 1,1-dioxide] the “% Inhibition (LDAH)” value was 0.0%. COc1ccc(CCc2ccc(NC(=O)C(=O)C3=C(O)c4ccccc4S(=O)(=O)C3)cc2)cc1OC [Example 3, N-[4-[2-(3,4-Dimethoxyphenyl)ethyl)phenyl]-4-hydroxy-α-oxo-2H-1-benzothiopyran-3-acetamide, 1,1-dioxide] was tested, and the “% Inhibition (LDAH)” value was 0.0%. In the case of O=C(Nc1ccc(CCc2cc(O)c(O)c(O)c2)cc1)C1=C(O)c2ccccc2S(=O)(=O)C1 [Example 36], the “% Inhibition (LDAH)” value is reported as 0.0%. For COc1ccc(CCc2ccc(NC(=O)C(=O)c3[nH]c4cc(C)c(C)cc4c3O)cc2)cc1OC [Example 175, 1H-Indole-2-acetamide, N-[4-[2-(3,4-dimethoxyphenyl)ethyl]phenyl]-3-hydroxy-5,6-dimethyl-α-oxo], the “% Inhibition (LDAH)” value was 0.0%. For COc1ccc(CCc2ccc(NC(=O)C(=O)C3Oc4cc5ccccc5cc4C3=O)cc2)cc1OC (stereo not drawn) [Example 117, Naptho[2,3-b]furan-2-acetamide, N-[4-[2-(3,4-dimethoxyphenyl)ethyl]phenyl]-2,3-dihydro-α,3-dioxo], the “% Inhibition (LDAH)” value was 0.0%.

Same assay, conditions: Concentration 7.90 E -9 M
CCCCCCCCCCc1ccc(NC(=O)C(=O)c2oc3cc(OC)c(OC)cc3c2O)cc1 [Example 119, 2-Benzofuranacetamide, N-[4-decylphenyl]-3-hydroxy-5,6-dimethoxy-α-oxo] was tested, and the “% Inhibition (LDAH)” value was 50.0%.

Same assay, conditions: Concentration 8.00 E -5 M
For COc1ccc(CCc2ccc(NC(=O)C(=O)c3oc4cc(OC)c(OC)cc4c3O)cc2)cc1OC [Example 115, 2-Benzofuranacetamide, N-[4-[2-(3,4-dimethoxyphenyl)ethyl]phenyl]-3-hydroxy-5,6-dimethoxy-α-oxo], the “% Inhibition (LDAH)” value was 0.0%. In the case of COc1ccc(CCc2ccc(NC(=O)C3CS(=O)(=O)c4ccccc4C3=O)cc2)cc1NC(C)=O (stereo not shown) [Example 50, N-[4-[2-(3-Acetylamino-4-methoxy)ethyl]phenyl]-3,4-dihydro-4-oxo-2H-1-benzothiopyran-3-carboxamide, 1,1-dioxide], the “% Inhibition (LDAH)” value is reported as 0.0%.

Same assay, conditions: acetone-pentane powder enzyme, 234 nm, 24° C., 5 min preincubation; read-out: Concentration (M) for 50.0 % Inhibition, IC (LDAH)
COc1cccc2c(O)c(C(=O)C(=O)Nc3ccc(CCc4ccc(O)c(O)c4)cc3)oc12 [Example 123, 2-Benzofuranacetamide, N-[4-[2-(3,4-dihydroxyphenyl)ethyl]phenyl]-3-hydroxy-7-methoxy-α-oxo] showed an IC50 of 2.5e-05 M. Compound COc1ccc(CCc2ccc(NC(=O)C(=O)C3=C(O)c4ccccc4OC3)cc2)cc1OC [Example 152] has an IC50 of 5.7e-07 M. Nc1ccc(CCc2ccc(NC(=O)C3CS(=O)(=O)c4ccccc4C3=O)cc2)cc1 (stereo not shown) [Example 52, N-[4-[2-(4-Aminophenyl)ethyl]phenyl]-3,4-dihydro-4-oxo-2H-1-benzothiopyran-3-carboxamide, 1,1-dioxide] was tested, and the IC50 was 6e-05 M. With COc1ccc(CCc2ccc(NC(=O)c3oc4ccc5ccccc5c4c3O)cc2)cc1OC [Example 103, Naptho[2,1-b]furan-2-carboxamide, 1-hydroxy-N-[4-[2-(3,4-dimethoxyphenyl)ethyl]phenyl]] the IC50 was 1.1e-06 M. CCCCCCCCCCc1ccc(NC(=O)C(=O)c2sc3ccc(Cl)cc3c2O)cc1 [Example 135, Benzo[b]thiophene-2-acetamide, 5-chloro-N-(4-decylphenyl)-3-hydroxy-α-oxo] gave an IC50 of 2.5e-05 M. With O=C(Nc1ccc(CCc2ccc(O)c(O)c2)cc1)C1Oc2c(n(-c3ccccc3)c3ccccc23)C1=O (stereo not shown) [Example 166, 2H-Furo[3,2-b]indole-2-carboxamide, N-[4-[2-(3,4-dihydroxyphenyl)ethyl]phenyl]-3,4-dihydro-3-oxo-4-phenyl] the IC50 was 2.7e-05 M. In the case of CN(C)c1ccc(CCc2ccc(NC(=O)C3CS(=O)(=O)c4ccccc4C3=O)cc2)cc1 (stereo not shown) [Example 55], the IC50 is reported as 6.8e-05 M. Compound “N-[4-[3-(3,4-Dihydroxyphenyl)propyl]phenyl]-3,4-dihydro-2H-1-benzothiopyran-3-carboxamide, 1,1-dioxide [Example 22]” has an IC50 of 1.3e-05 M. Work on O=C(O)c1ccc(CCc2ccc(NC(=O)C3CS(=O)(=O)c4ccccc4C3=O)cc2)cc1 (stereo not shown) [Example 12, 4-[2-[4-[[(3,4-Dihydro-4-oxo-2H-1-benzothiopyran-3-yl)carbonyl]amino]phenyl]ethyl]benzoic acid, 1,1-dioxide] yielded an IC50 of 3.4e-06 M. In the case of CCCCCCCCCCc1ccc(NC(=O)C(=O)C2=C(O)c3ccccc3S(=O)(=O)C2)cc1 [Example 9, N-(4-Decylphenyl)-4-hydroxy-α-oxo-2H-1-benzothiopyran-3-acetamide, 1,1-dioxide], the IC50 is reported as 7.7e-05 M. With Cc1cc2[nH]c(C(=O)C(=O)Nc3ccc(CCc4ccc(O)c(O)c4)cc3)c(O)c2cc1C [Example 177, 1H-Indole-2-acetamide, N-[4-[2-(3,4-dihydroxyphenyl)ethyl]phenyl]-3-hydroxy-5,6-dimethyl-α-oxo] the IC50 was 8e-05 M. O=C(Nc1ccc(CCc2ccc(Cl)cc2)cc1)C(=O)C1=C(O)c2ccccc2SC1 [Example 4, N-[4-[2-(4-chlorophenyl)ethyl]phenyl]-4-hydroxy-α-oxo-2H-1-benzothiopyran-3-acetamide] was tested, and the IC50 was 4.5e-05 M.
